{"source": "patent US20160237450A1", "about": "“METHOD FOR ENHANCING DROUGHT TOLERANCE IN PLANTS” (Plant Response Biotech S.L., priority 2015, published 2016)", "assay_type_in_all_cases": "in vivo", "key": {"[1]": {"system": "barley plants ('Hispanic')", "assay": "Barley field seed production without irrigation", "conditions": "no external irrigation", "method": "In order to determine the drought or drought stress tolerance after seed treatments with TMAO di-hydrate and germination in the presence of TMAO di-hydrate, barley “Hispanic” seeds, corn “FAO700” seeds, and “Sambro” sunflower seeds were surface sterilized for 3 minutes in ethanol 70%, then rinsed twice and finally included in a pre-treatment solution of 1 g/L TMAO di-hydrate solution (or just water) under shaking for 3 hours at a dose of 1 litre per Kg of seeds. Then, the seeds were sown in randomized plots of 10 sqm in a surface of 2.000 sqm. Chlorophyll content was measured 1 month before harvest. In corn irrigation was applied in half of the plots while the other half only received an initial establishment watering. The barley plots received 200 l of rain per m^2 through the growing season. Some of the plots received a second spray treatment with 1 g/liter of TMAO. […] At least 3 independent plants were treated per experiment.\nTMAO di-hydrate applied exogenously which increases the endogenous content of TMAO as if the plants were overexpressing an FMO protein at least 4 times increases seed production in barley grown in the field without irrigation. ‘Hispanic” barley seeds were sown, grown and treated as described. Both, seed treatments (each Kg of seed was soaked in 1 liter of a 1 g/1 L TMAO di-hydrate solution, although smaller volumes of this solution are also effective) and a combination of seed and spray treatments with 1 g/L TMAO di-hydrate increased plant grain production. The field experienced 200 l/m^2 of rain water in total through the season."}, "[2]": {"system": "strawberry plants ('Sabrina', 'Candonga', 'Fortuna')", "assay": "Strawberry fruit production without drought stress (trade-off)", "conditions": "no drought stress; for Strawberry fruit production, % Control (2013) / Strawberry fruit production, % Control (2014): 1 g/l spray every 4 weeks for 3 months", "method": "(§1) In order to determine the plant yield productivity under normal conditions, ‘Sabrina’, ‘Candonga’ and ‘Fortuna’ strawberry varieties, leek, lettuce, “Iceberg” variety, broccoli “Parthenon” variety, celery or kohlrabi plants, were grown under standard production conditions and 120 plants of each variety per treatment (where the treatment was a control comprising standard watering or 1 g/L of TMAO di-hydrate spray every four weeks) were analyzed. Plants were located in four (4) different positions for each group of 30 plants from the same treatment. Fruits, leaves or roots were harvested from individual plants and total weight was determined for each plant.\nFruit yield was determined in ‘Sabrina’, ‘Candonga’ and ‘Fortuna’ strawberry plants treated with 1 g/l of TMAO di-hydrate or water as described above in order to evaluate the trade-off costs of the treatment with no drought stress."}, "[3]": {"system": "leek plants", "assay": "Yield production without drought stress, leek", "conditions": "1 g/l spray every 4 weeks for 3 months, no drought stress", "method": "as §1\nRoot or leaves yield was determined in the plants treated with 1 g/l of TMAO di-hydrate or water as described above in order to evaluate the trade-off costs of the treatment with no drought stress."}, "[4]": {"system": "broccoli plants ('Parthenon')", "assay": "Broccoli inflorescence production under limited water", "conditions": "30% water; for % Control (inflorescence weight): versus untreated 30% water", "text": "TMAO di-hydrate applied exogenously which increases the endogenous content of TMAO as if the plants were overexpressing an FMO protein at least 4 times increases plant production in broccoli under limited water irrigation. ‘Parthenon’ broccoli seeds were sown, grown and treated as described above. Spray and irrigation treatments with 1 g/L TMAO di-hydrate increased plant production, as measured by the average weight of the crown plus stems in grams."}, "[5]": {"system": "tomato plants ('Moneymaker')", "assay": "Tomato stem size under limited water irrigation", "method": "For each drought or limited water experiment 480 seeds (of either pepper, barley, tomato, cucumber or corn) were sown, producing 384 plants in 512 cm^3 pots (4 plants per pot). Plants were grown under chamber conditions at 21° C. for 3 weeks. Then, the plants were moved to a greenhouse, where average temperature was 25° C. to 28° C. Spray and irrigation treatments as described herein were done when the plants had two extended leaves and the next pair of leaves were coming up.\nTreatments: Twelve pots (containing 48 plants) were irrigated with 40 ml of either: water, 0.1 g/L TMAO di-hydrate solution, 1.0 g/L TMAO di-hydrate solution, or 5.5 g/L TMAO di-hydrate solution. Another set of 12 pots containing 48 plants were sprayed with 40 ml of either water (3.3 ml in average per pot), a solution containing 0.1 g/L TMAO di-hydrate solution, 1.0 g/L TMAO di-hydrate, or 5 g/L, or 10 g/L TMAO di-hydrate. Further sets of 12 pots containing 48 plants were both sprayed with each initial solution TMAO di-hydrate solution and further irrigated with the same TMAO di-hydrate solutions used in the control water sprayed plants. All pots were also watered with 40 ml of water. The sprayed plants were watered with the same volume of water as the “irrigated plants). The pots were located on plastic glass to maintain constant moisture and to avoid liquid spillage during watering. Trays containing the pots were located on greenhouse tables. The distribution of the trays on the table and the position on the pots in the tray was changed every week to avoid position effects.\nAfter the treatments described above, for the “limited water” experiments plants were watered with 20 ml of water or solution instead of 40 ml when the first plants started to wilt. The stem length was recorded as analyzed for the limited water experiments in which the plants are watered with 50-30% of the water that the plant requires.\nTMAO di-hydrate applied exogenously which increases the endogenous content of TMAO as if the plants were overexpressing an FMO protein at least 4 times increases plant stem size in tomato under limited water irrigation. ‘Moneymaker’ tomato seeds were sown, grown and treated as described."}, "[6]": {"conditions": "1 g TMAO/1 Kg seed + 1 g/L spray"}}, "data": [{"smiles": "C[N+](C)(C)[O-].O.O", "note": "[TMAO di-hydrate, trimethylamine N-oxide di-hydrate]", "values": [{"measurement": "% Control (seed production)", "setting": "[1]; 1 g TMAO/1 Kg seed", "value": 18, "unit": "%"}, {"measurement": "Average number of Grams per square meter (seed production)", "setting": "[1]; 1 g TMAO/1 Kg seed", "value": "225.98 ± 11.89", "unit": "Grams per square meter"}, {"measurement": "% Control (seed production)", "setting": "[1]; [6]", "value": 35, "unit": "%"}, {"measurement": "Average number of Grams per square meter (seed production)", "setting": "[1]; [6]", "value": "256.36 ± 12.78", "unit": "Grams per square meter"}, {"measurement": "difference in fruit production versus water-treated plants", "setting": "[2]; 1 g/l", "value": "no significant difference"}, {"measurement": "Strawberry fruit production, % Control (2013)", "setting": "[2]; Candonga", "value": 102, "unit": "%"}, {"measurement": "Strawberry fruit production, % Control (2014)", "setting": "[2]; Candonga", "value": 106, "unit": "%"}, {"measurement": "Strawberry fruit production, % Control (2013)", "setting": "[2]; Fortuna", "value": 101, "unit": "%"}, {"measurement": "Strawberry fruit production, % Control (2014)", "setting": "[2]; Fortuna", "value": 105, "unit": "%"}, {"measurement": "Strawberry fruit production, % Control (2013)", "setting": "[2]; Sabrina", "value": 106, "unit": "%"}, {"measurement": "Strawberry fruit production, % Control (2014)", "setting": "[2]; Sabrina", "value": 115, "unit": "%"}, {"measurement": "Strawberry fruit production, % Control (2013)", "setting": "[2]; Total of varieties", "value": 105, "unit": "%"}, {"measurement": "Strawberry fruit production, % Control (2014)", "setting": "[2]; Total of varieties", "value": 111, "unit": "%"}, {"measurement": "Yield production, % Control", "setting": "[3]", "value": 102, "unit": "%"}, {"measurement": "AVERAGE WEIGHT (grams/inflorescence)", "setting": "[4]; 1 g/L irrigation", "value": "85.2 ± 4.6", "unit": "grams/inflorescence"}, {"measurement": "% Control (inflorescence weight)", "setting": "[4]; 1 g/L irrigation", "value": 106, "unit": "%"}, {"measurement": "AVERAGE WEIGHT (grams/inflorescence)", "setting": "[4]; 1 g/L spray", "value": "87.3 ± 6.7", "unit": "grams/inflorescence"}, {"measurement": "% Control (inflorescence weight)", "setting": "[4]; 1 g/L spray", "value": 108, "unit": "%"}, {"measurement": "AVERAGE STEM SIZE (cm)", "setting": "[5]; initial treatment 0.1 g/L, irrigations 1 g/L", "value": "12.32 ± 0.56", "unit": "cm"}, {"measurement": "AVERAGE STEM SIZE (cm)", "setting": "[5]; initial treatment 0.1 g/L, irrigations water", "value": "11.06 ± 0.55", "unit": "cm"}, {"measurement": "AVERAGE STEM SIZE (cm)", "setting": "[5]; initial treatment 1 g/L, irrigations 1 g/L", "value": "13.77 ± 0.55", "unit": "cm"}, {"measurement": "AVERAGE STEM SIZE (cm)", "setting": "[5]; initial treatment 1 g/L, irrigations water", "value": "11.59 ± 0.55", "unit": "cm"}, {"measurement": "AVERAGE STEM SIZE (cm)", "setting": "[5]; initial treatment 5 g/L, irrigations 1 g/L", "value": "14.6 ± 0.55", "unit": "cm"}, {"measurement": "AVERAGE STEM SIZE (cm)", "setting": "[5]; initial treatment 5 g/L, irrigations water", "value": "14.2 ± 0.56", "unit": "cm"}, {"measurement": "AVERAGE STEM SIZE (cm)", "setting": "[5]; initial treatment water, irrigations 1 g/L", "value": "12.97 ± 0.55", "unit": "cm"}]}]}
